Source: patent publication US6660830B1, “Peptides with antiproliferative properties” (priority 1996, dated 2003)
Positions of bridges follow the written chain, without caps; N, C: chain ends. Non-standard residues stand in square brackets, D forms with d. Chains are numbered I, II in the order given. No end group written: not given here.

Experiments:
[1] = system: normal human peripheral blood mononuclear cells; test: Effect on normal peripheral blood mononuclear cells; assay type: cell-based; details: peptide 10^-5 M, 24 hours (FIG. 15)
Method: The incubation of cells with P3 was performed for a time period of 24 hours.

MCF-7 cells [2] = test: Cell cycle distribution by FACS in MCF-7 breast cancer cells; assay type: cell-based
CCRF-CEM/ACT 400 cells = test: Cytotoxicity by the trypan blue method in CCRF-CEM/ACT 400 resistant leukemia cells; assay type: cell-based; details: asynchronously growing CCRF-CEM/ACT 400 resistant cells, RPMI 10% FCS; peptide 10^-5 M (FIG. 14)
Method: (§1) The second experimental setting relates to the leukemia cell lines K562 and CCRF-CEM and CCRF-CEM/ACT400. 100000 asynchronously growing cells/well/ml RPMI/10% FCS have each been incubated for 48 hours with each of the peptides in 6-well plates. As a readout, the number of dead cells/200 counted cells is determined according to the trypan blue method (L. D. Attardi et al., The EMBO Journal, 1996, vol. 15, no. 14, pp. 3693-3701 and M. K. Reeder & H. C. Isom, Cell Growth & Differentiation 196, vol. 7, pp. 449-460) after this 48-hour incubation.

SAOS-2 cells [3] = test: Cell cycle distribution by FACS in SAOS-2 osteosarcoma cells; assay type: cell-based, human; details: for effect on cell cycle phases (words, summary of Table 2): peptide 5x10^-5 M each; for G1 (cell population in G1 phase) / G2/M (cell population in G2/M phase) / S (cell population in S phase): SAOS-2 synchronized in G0/G1, stimulated by 10% FCS for 24 h, peptide 5x10^-5 M, FACS
Method: (§2) The experimental setting comprises experiments with the breast cancer cell line MCF-7 containing an intact retinblastoma protein and the human osteosarcoma cell line SAOS-2 containing a defective retinoblastoma protein. Cells are seeded in 12-well plates at 100000 (=one hundred thousand) cells/well/ml in RPMI medium or DMEM medium containing 10% FCS and allowed to adhere for 24 hours. Subsequently, the cells are starved by incubation for 3 days in DMEM without FCS, such that they are synchronized in the G0/G1 phase and then the cells are stimulated by 10% FCS or 10^−8 M IGF-1 or 10^−6 M insulin, respectively, for 24 hours. The effect of each of the added peptides on each of the above modes of stimulation, which effect reflects the rate of cell division, is investigated. The control (cells synchronized in G0/G1) is fixed at time 0 after three days of starvation. The remaining cells (+/−peptide) are fixed after 24 hours. The cells are subsequently analyzed by FACS for their cell cycle distribution. Analogous methods are to be found e.g. in R. Fahraeus et al., Current Biology, 1996, vol. 6, no. 1, pp. 84-91 and L. Zhu et al., Genes & Development, 1993, vol. 7, pp. 1111-1125.

MCF-7 cells [4] = test: Cell cycle distribution by FACS in MCF-7 breast cancer cells; assay type: cell-based; details: for morphology of treated cells: peptide 10^-5 M (FIG. 2, 4, 7, 11, 12); for effect on S phase (words, summary of Table 1): MCF-7 stimulated by IGF-1 10^-8 M or insulin 10^-6 M; for effect on S phase (words, summary of Table 1) / G1 (cell population in G1 phase) / G2/M (cell population in G2/M phase) / S (cell population in S phase): peptide 10^-5 M; for G1 (cell population in G1 phase) / G2/M (cell population in G2/M phase) / S (cell population in S phase): FACS
Method: as §2

SAOS-2 cells [5] = test: Cell cycle distribution by FACS in SAOS-2 osteosarcoma cells; assay type: cell-based, human; details: SAOS-2 synchronized in G0/G1, serum-free conditions; peptide 10^-5 M (FIG. 8)
CCRF-CEM cells = test: Cytotoxicity by the trypan blue method in CCRF-CEM sensitive leukemia cells; assay type: cell-based; details: asynchronously growing CCRF-CEM sensitive cells, RPMI 10% FCS; peptide 10^-5 M (FIG. 14)
Method: as §1

K562 cells = test: Cytotoxicity by the trypan blue method in K562 leukemia cells; assay type: cell-based; details: asynchronously growing K562 in RPMI; peptide 10^-5 M (FIG. 13)
Method: The results have been plotted as the living cells treated with P3 being a percentage of the living cells not treated with P3. The number of the living cells has been determined by counting at least 200 cells at each time point according to the trypan blue method.
as §1

[6] = MCF-7 stimulated by EGF 10^-8 M, peptide 10^-5 M (FIG. 6)
[7] = MCF-7 stimulated by estradiol (E2) 10^-9 M, peptide 10^-5 M (FIG. 6)
[8] = MCF-7 synchronized in G0/G1, serum-free conditions, peptide 10^-5 M (FIG. 1, 3)
[9] = asynchronously growing MCF-7 in DMEM containing 10% FCS, peptide 10^-5 M (FIG. 10)
[10] = SAOS-2 stimulated by 10% FCS, peptide 10^-5 M (FIG. 9)
[11] = MCF-7 stimulated by IGF-1 10^-8 M
[12] = MCF-7 stimulated by IGF-1 10^-8 M, peptide 10^-5 M (FIG. 2, 4, 11, 12)
[13] = MCF-7 synchronized in G0/G1, stimulated by IGF-1 10^-8 M for 24 h
[14] = MCF-7 synchronized in G0/G1, stimulated by insulin 10^-6 M for 24 h

Substance	morphology of treated cells (MCF-7 cells [2]; [8])	morphology of treated cells (MCF-7 cells [4]; [11])	effect on cell cycle phases (MCF-7 cells [4]; [12])	effect on cell cycle phases (MCF-7 cells [4]; [8])	effect on cell cycle phases (words, summary of Table 2) (SAOS-2 cells [3]; SAOS-2 stimulated by 10% FCS)	G1 (cell population in G1 phase) (SAOS-2 cells [3])	G2/M (cell population in G2/M phase) (SAOS-2 cells [3])	S (cell population in S phase) (SAOS-2 cells [3])	effect on S phase (words, summary of Table 1) (MCF-7 cells [4])	G1 (cell population in G1 phase) (MCF-7 cells [4]; [13])	G2/M (cell population in G2/M phase) (MCF-7 cells [4]; [13])	S (cell population in S phase) (MCF-7 cells [4]; [13])	further results
I: [dL][dF][dY][dK][dK][dV]GGGK[dR]GKG / II: [dL][dF][dY][dK][dK][dV]GGGK[dR]G / III: [dL][dF][dY][dK][dK][dV]GGG / IV: [dL][dF][dY][dK][dK][dV]GGG (amide I:10-IV:C, I:13-II:C, II:10-III:C) [P3, NH2-[dLdFdYdKdKdV-GGG]4-[1KdRG]2-1KG-COOH]	corresponds to that of apoptotic cells	corresponds to that of apoptotic cells	increase of the G1 and G2/M phases as well as in a decrease of the S phase	reduces the G1 phase and increases the S phase									effect on normal cells ([1]; activated state (b)): no effect; morphological changes of treated cells ([1]; quiescent or activated): do not show any morphological changes; effect on normal cells ([1]; quiescent state (a)): no effect; morphology of treated cells (MCF-7 cells [2]; MCF-7, IGF-1 10^-8 M, peptide 5x10^-6 M (FIG. 7)): corresponds to that of apoptotic cells; blocks the progression of the cell cycle caused by IGF-1 (MCF-7 cells [2]; MCF-7, IGF-1 10^-8 M, several peptide concentrations (FIG. 7)): in a dose-dependent manner; effect on cell cycle phases (MCF-7 cells [2]; [6]): increases the G1- and the G2 phases as well as decreases the S phase; morphology of treated cells (MCF-7 cells [2]; [6]): corresponds to that of apoptotic cells; effect on cell cycle phases (MCF-7 cells [2]; [7]): increases the G1- and the G2 phases as well as decreases the S phase; morphology of treated cells (MCF-7 cells [2]; [7]): corresponds to that of apoptotic cells; effect on cell cycle phases (MCF-7 cells [2]; [9]): reduces the G1 phase and increases the S phase; morphology of treated cells (MCF-7 cells [2]; [9]): corresponds to that of apoptotic cells; cytotoxic effect (CCRF-CEM/ACT 400 cells): act in a cytotoxic manner; effect on cell cycle phases (SAOS-2 cells [3]; [10]): increases the G1 phase and decreases the S phase; morphology of treated cells (SAOS-2 cells [3]; [10]): corresponds to that of apoptotic cells; effect on cell cycle phases (SAOS-2 cells [5]): reduces the G1 phase and increases the S and G2/M phases; morphology of treated cells (SAOS-2 cells [5]): corresponds to that of apoptotic cells; cytotoxic effect (CCRF-CEM cells): act in a cytotoxic manner; cytotoxic effect (living treated cells as percentage of living untreated cells, trypan blue) (K562 cells): time-dependent
NH2-[dKdVdLdYdFdKGGG]4-[1KdRG]2-1KG-COOH (H-[dK][dV][dL][dY][dF][dK]GGG[dK][dV][dL][dY][dF][dK]GGG[dK][dV][dL][dY][dF][dK]GGG[dK][dV][dL][dY][dF][dK]GGGK[dR]GK[dR]GKG-OH; also: branched: four arms on polylysine core) [P7s, combination of dKdVdLdYdFdK, hydropathically homologous to P1, and a polylysine core]		corresponds to that of apoptotic cells	increases the G1 phase and the G2/M phase as well as decreases the S phase										
NH2-KVLYFKRQIKIWFQNRRMKWKK-COOH (H-KVLYFKRQIKIWFQNRRMKWKK-OH) [P8]		corresponds to that of apoptotic cells	increases the G1 phase and the G2/M phase as well as decreases the S phase										
NH2-LFYKKVRQIKIWFQNRRMKWKK-COOH (H-LFYKKVRQIKIWFQNRRMKWKK-OH) [P6]	corresponds to that of apoptotic cells	corresponds to that of apoptotic cells	increases the G1 phase as well as decreases the S phase	reduces the G1 phase and increases the S phase	increase of the G1 phase and a decrease of the S phase	76.6	11.2	12.2	reduce the S phase	53.7	18.6	27.7	S (cell population in S phase) (MCF-7 cells [2]; MCF-7 synchronized in G0/G1, stimulated by insulin 10^-6 M for 24 h, peptide 10^-5 M, FACS): 36.6; G1 (cell population in G1 phase) (MCF-7 cells [4]; [14]): 48.7; G2/M (cell population in G2/M phase) (MCF-7 cells [4]; [14]): 14.6
NH2-LFYKKVPKKKRKV-COOH (H-LFYKKVPKKKRKV-OH) [P5]	corresponds to that of apoptotic cells			reduces the G1 phase and increases the S phase	increase of the G1 phase and a decrease of the S phase	73.5	13.3	13.2	reduce the S phase	54.0	13.6	32.4	
